Laboratory results: US20230113775A1, “ANHYDROUS COMPOSITIONS OF EGFR INHIBITORS AND METHODS OF USE” (priority 2021, published 2023)
“Also recorded” adds a separate entry of the source.

Key:
[1] = test system: Non-diseased 3D human skin equivalent (HSE); assay: Effect of erlotinib on non-diseased 3D human skin equivalent; assay type: cell-based; settings: 100 nM erlotinib every 72 hours until harvest at day 10
Protocol: Human skin equivalents were prepared by methods known in the art. Examples of such methods are disclosed in Mieremet et al. Int. J. Mol. Sci. (2021) 22(11):5790. Non-diseased cells were plated for 3D human skin equivalent (HSE) and treated with 100 nM erlotinib from the time of lifting to the air-liquid interface every 72 hours until harvest at day 10. The samples were subjected to protein, mRNA, immunofluorescence and morphological analysis.

[2] = test system: Non-diseased 3D human skin equivalent (HSE); assay: Gene expression analysis, non-diseased 3D HSE; assay type: cell-based
Protocol: Non-diseased cells and cells from an EI patient were plated for 3D human skin equivalent (HSE)and treated with the erlotinib at 10 nM or 100 nM from the time of lifting to the air-liquid interface every 72 hours until harvest at day 10. The samples were subjected to gene expression analysis. […] Markers of terminal differentiation such as fillaggrin (FLG) and loricrin (LOR) and markers of cell adhesion such as desmoglein 1 (DSG 1) were also modified.
Gene expression results for non-diseased tissue following treatment with erlotinib: […]

EI 3D HSE = assay: TEER epidermal barrier function, EI 3D HSE; assay type: cell-based, human; settings: 10 nM and 100 nM erlotinib
[3] = test system: Hairless Skh-1 mice treated with TPA; assay: Mouse model of hyperkeratosis (TPA-induced skin inflammation); assay type: in vivo; settings: composition comprising 0.4%, 1.0% or 4.0% erlotinib daily starting on Day 8
Protocol: Hairless Skh-1 mice were treated with 12-O-Tetradecanoylphorbol-13-acetate (TPA) daily for 7 days than every other day for the next 7 days to induce skin inflammation. The mice were then treated with vehicle or a composition comprising 0.4%, 1.0% or 4.0% erlotinib daily starting on Day 8. The mice were assessed for degrees of inflammation, transepidermal water loss and expression of p^Y1068EGFR, EGFR, KRT10 and KRT16.

[4] = test system: Normal keratinocyte cells; assay: Effect of erlotinib on 2D non-diseased keratinocytes (proliferation, Loricrin expression); assay type: cell-based
Protocol: Normal keratinocyte cells were cultured and treated with vehicle or erlotinib at 100, 500 and 1000 nM. The proliferation rate of the cells was determined.

non-diseased 3D HSE = assay: TEER epidermal barrier function, non-diseased 3D HSE; assay type: cell-based, human; settings: 10 nM and 100 nM erlotinib
EI derived keratinocyte = assay: Effect of erlotinib on 2D cultured keratinocytes derived from epidermolytic ichthyosis (colony density); assay type: cell-based, human; settings: 100 nM erlotinib; microscope and fold change
Protocol: Tissue from non-diseased donors and EI patients were cultured and treated with 100 nM erlotinib.

[5] = Erlo 10 nM, NHEK83.19 non-diseased 3D HSE, Control 1.00
[6] = Erlo 10 nM, NUTC394.14 non-diseased 3D HSE, Control 1.00
[7] = Erlo 10 nM, NUTC439.14 non-diseased 3D HSE, Control 1.0
[8] = Erlo 100 nM, NHEK83.19 non-diseased 3D HSE, Control 1.00
[9] = Erlo 100 nM, NUTC394.14 non-diseased 3D HSE, Control 1.00
[10] = Erlo 100 nM, NUTC439.14 non-diseased 3D HSE, Control 1.0
[11] = harvest day 10, listed as Erlotinib

With `C#Cc1cccc(Nc2ncnc3cc(OCCOC)c(OCCOC)cc23)c1` [erlotinib] the desmosomal organization [1] was “desmosomal organization is enhanced”, the terminal differentiation [1] was “enhances terminal differentiation” and the CDN4 gene expression [2, 5] was 2.92. For the same compound, the CLDN1 gene expression [2, 5] was 1.30, the DSC1 gene expression [2, 5] was 0.60 and the DSG1 gene expression [2, 5] was 0.73. For the same compound, the FLG gene expression [2, 5] was 0.51, the IVL gene expression [2, 5] was 2.15 and the KRT10 gene expression [2, 5] was 0.28. It also gave a KRT16 gene expression [2, 5] of 1.70, an LOR gene expression [2, 5] of 0.03 and an OCLN gene expression [2, 5] of 1.76. For the same compound, the TJP1 gene expression [2, 5] was 1.65, the CDN4 gene expression [2, 6] was 2.87 and the CLDN1 gene expression [2, 6] was 1.28. The DSC1 gene expression [2, 6] was 0.59, the DSG1 gene expression [2, 6] was 0.72 and the FLG gene expression [2, 6] was 0.50. It also gave an IVL gene expression [2, 6] of 2.11, a KRT10 gene expression [2, 6] of 0.27 and a KRT16 gene expression [2, 6] of 1.67. It also gave an LOR gene expression [2, 6] of 0.03, an OCLN gene expression [2, 6] of 1.73 and a TJP1 gene expression [2, 6] of 1.62. It also gave a CDN4 gene expression [2, 7] of 0.7, a CLDN1 gene expression [2, 7] of 1.9 and a DSC1 gene expression [2, 7] of 1.9. The DSG1 gene expression [2, 7] was 2.1, the FLG gene expression [2, 7] was 1.0 and the IVL gene expression [2, 7] was 0.9. For the same compound, the KRT10 gene expression [2, 7] was 2.1, the KRT16 gene expression [2, 7] was 0.9 and the LOR gene expression [2, 7] was 1.4. For the same compound, the OCLN gene expression [2, 7] was 0.7, the TJP1 gene expression [2, 7] was 0.7 and the CDN4 gene expression [2, 8] was 1.65. The CLDN1 gene expression [2, 8] was 1.24, the DSC1 gene expression [2, 8] was 2.69 and the DSG1 gene expression [2, 8] was 2.77. The FLG gene expression [2, 8] was 2.37, the IVL gene expression [2, 8] was 1.21 and the KRT10 gene expression [2, 8] was 11.50. For the same compound, the KRT16 gene expression [2, 8] was 1.00, the LOR gene expression [2, 8] was 8.19 and the OCLN gene expression [2, 8] was 1.36. The TJP1 gene expression [2, 8] was 1.58, the CDN4 gene expression [2, 9] was 1.54 and the CLDN1 gene expression [2, 9] was 1.16. For the same compound, the DSC1 gene expression [2, 9] was 2.52, the DSG1 gene expression [2, 9] was 2.59 and the FLG gene expression [2, 9] was 2.21. For the same compound, the IVL gene expression [2, 9] was 1.14, the KRT10 gene expression [2, 9] was 10.75 and the KRT16 gene expression [2, 9] was 0.89. The LOR gene expression [2, 9] was 7.66, the OCLN gene expression [2, 9] was 1.27 and the TJP1 gene expression [2, 9] was 1.48. For the same compound, the CDN4 gene expression [2, 10] was 1.4, the CLDN1 gene expression [2, 10] was 29.4 and the DSC1 gene expression [2, 10] was 29.4. It also gave a DSG1 gene expression [2, 10] of 9.3, an FLG gene expression [2, 10] of 25.9 and an IVL gene expression [2, 10] of 1.5. It also gave a KRT10 gene expression [2, 10] of 17.2, a KRT16 gene expression [2, 10] of 1.6 and an OCLN gene expression [2, 10] of 1.6. For the same compound, the TJP1 gene expression [2, 10] was 1.3, the “keratin 10 (KRT10) expression” value ([2]; normal human keratinocytes in 3D culture, erlotinib 10 nM or 100 nM) was “marked increase” and the “epidermal barrier function (TEER)” value (EI 3D HSE; harvest day 10) was “does not impair epidermal barrier function”. For the same compound, the “epidermal barrier function (TEER)” value (EI 3D HSE; [11]) was “did not produced a significant change in TEER values”, the skin inflammation ([3]; TPA-treated Skh-1 mice) was “dose dependent reduction of skin inflammation” and the transepithelial water loss ([3]; TPA-treated Skh-1 mice) was “significantly decreasing transepithelial water loss”. The “expression of p^Y1068EGFR, EGFR, KRT10 and KRT16” value ([3]; Western blot) was “dose dependent change”, the keratinocyte differentiation ([4]; following exposure to erlotinib) was “keratinocyte differentiation is increased” and the Loricrin expression ([4]; high dose erlotinib) was “increased Loricrin expression”. The keratinocyte proliferation ([4]; medium and high doses of erlotinib (tested 100, 500 and 1000 nM) vs vehicle) was “decreased keratinocyte proliferation”, the “epidermal barrier function (TEER)” value (non-diseased 3D HSE; harvest day 10) was “does not impair epidermal barrier function” and the “epidermal barrier function (TEER)” value (non-diseased 3D HSE; [11]) was “did not produced a significant change in TEER values”. For the same compound, the “EI derived keratinocyte colony density” value (EI derived keratinocyte) was “marked reduction in colony density; also recorded: markedly reduced”.
